# Laboratory results: patent US9573956B2, “Compounds as dual inhibitors of phosphodiesterases and histone deacetylases” (FUNDACIÓN PARA LA INVESTIGACIÓN MÉDICA APLICADA, priority 2013, dated 2017)
# Marks after values point to notes of the source that are not given here.
# What was measured:
# [1] = tested on: acetylated histone 3 at Lys9 (AcH3K9); experiment: HDAC activity in wild type primary neurons (Western blot AcH3K9); assay type: cell-based, mouse; details: Mus musculus, Neuron, 0.5 h, 30 min, EC50 = 50% increase in AcH3K9 over basal, read-out: AcH3 (EC50)
# HDAC6 = target: T1, HDAC6 (Homo sapiens, UniProt Q9UBN7); experiment: HDAC enzyme activity assay (fluorogenic substrate), HDAC6; assay type: biochemical; details: recombinant enzyme; read-out: HDAC6 inhibition (IC50)
# T1 construct: BC069243; Cat. #50006) is full-length with N-terminal GST tag; GST (N); purchased BPS Biosciences 50006; host or cells: baculovirus infected Sf9 cells
# T1 sequence (Q9UBN7 1-1215): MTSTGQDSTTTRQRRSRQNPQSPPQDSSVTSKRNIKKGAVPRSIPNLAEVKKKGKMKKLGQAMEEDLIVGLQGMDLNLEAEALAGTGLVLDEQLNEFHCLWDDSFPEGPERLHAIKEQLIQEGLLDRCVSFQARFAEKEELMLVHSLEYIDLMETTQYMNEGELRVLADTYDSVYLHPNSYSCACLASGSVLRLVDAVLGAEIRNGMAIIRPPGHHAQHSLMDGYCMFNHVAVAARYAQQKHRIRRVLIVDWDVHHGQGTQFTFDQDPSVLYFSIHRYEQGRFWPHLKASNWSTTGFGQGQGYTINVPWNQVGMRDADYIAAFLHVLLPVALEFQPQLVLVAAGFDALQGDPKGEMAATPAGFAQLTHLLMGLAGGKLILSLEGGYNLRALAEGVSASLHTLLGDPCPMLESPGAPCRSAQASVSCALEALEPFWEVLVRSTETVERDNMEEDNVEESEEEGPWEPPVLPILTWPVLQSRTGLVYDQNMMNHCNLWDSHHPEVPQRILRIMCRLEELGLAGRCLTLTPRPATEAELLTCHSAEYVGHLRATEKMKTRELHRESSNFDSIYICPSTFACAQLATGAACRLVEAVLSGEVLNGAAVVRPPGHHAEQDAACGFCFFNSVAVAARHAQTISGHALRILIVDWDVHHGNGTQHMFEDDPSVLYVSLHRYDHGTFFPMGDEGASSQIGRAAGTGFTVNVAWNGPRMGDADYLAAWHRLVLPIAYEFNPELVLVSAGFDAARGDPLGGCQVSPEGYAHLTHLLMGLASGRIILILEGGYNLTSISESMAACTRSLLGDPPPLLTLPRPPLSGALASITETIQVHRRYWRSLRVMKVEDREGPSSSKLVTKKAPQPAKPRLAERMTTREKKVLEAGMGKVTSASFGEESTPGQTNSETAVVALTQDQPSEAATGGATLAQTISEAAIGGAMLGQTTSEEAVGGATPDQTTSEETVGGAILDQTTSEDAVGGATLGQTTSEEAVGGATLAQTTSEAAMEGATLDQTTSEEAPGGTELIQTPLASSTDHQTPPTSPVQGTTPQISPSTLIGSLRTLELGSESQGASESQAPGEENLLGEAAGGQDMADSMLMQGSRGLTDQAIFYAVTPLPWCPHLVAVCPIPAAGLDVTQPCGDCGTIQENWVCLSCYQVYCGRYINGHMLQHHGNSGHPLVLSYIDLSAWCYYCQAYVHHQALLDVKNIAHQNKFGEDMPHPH
# [2] = tested on: phosphorylated tau (p-tau); experiment: AD-related markers in Tg2576 neurons: pTau; assay type: cell-based; details: Mus musculus, Neuron, 48 h, treated two days, EC50 = 50% decrease in pTau over basal
# [3] = Pharmacokinetics, plasma and brain concentrations in wild type mice; assay type: in vivo; details: mouse, ip; for CMax (brain; nmol/Kg): in vivo; for Tmax / Cmax: single intraperitoneal injection, wild type mice; for Tmax: time of maximum concentration in brain; for Cmax: plasma, at tMax, (Standard Deviation)
# Procedure: Plasma and brain samples for measuring compounds concentrations were collected at predetermined times from four wild type mice per point. Three time points were measured: 0.25, 0.5 and 1.0 hour. Compounds concentration was measured using a Xevo-TQ MS triple quadropole mass spectrometer with an electrospray ionization (ESI) source and an Acquity UPLC (Waters, Manchester, UK).
# […]. Compounds were injected as a single intraperitoneal injection. Animals were killed by decapitation.
# Plasma. Blood was collected into tubes containing EDTA and plasma was collected via centrifugation (4° C., 13200 rpm, 5 min) and stored at −80° C. until analysis.
# Brain. Brains were collected immediately after mice death. The brains were excised, weighed and frozen at −80° C. until further process for analysis.
# Chromatographic separation was performed by gradient elution at 0.4 mL/min using an Acquity UPLC BEH C18 column (100×2.1 mm, 1.7 μm particle size; Waters). The mobile phase consisted of A: water with 0.1% formic acid, B: methanol with 0.1% formic acid. After 1.5 min at the initial condition of 95% A, solvent B was increased from 5% to 100% over 2 min, maintained at 100% for 1.5 min, then a linear gradient to initial conditions was applied for 0.1 min and maintained for 3.4 minutes to re-equilibrate the column, giving a cycle time of 8.5 min. The autosampler temperature was set at 10° C. and column temperature at 45° C.
# Compounds were monitored using a triple quadrupole mass spectrometer equipped with an electrospray ionization interface. For detection and quantification, a capillary voltage of 3.5 kV and a cone voltage of 38 V were used. Source and desolvation temperatures were 150° C. and 650° C., respectively. Ultra-high purity nitrogen was used for cone gas (75 L h^−1) and desolvation gas (1000 L h^−1). The electrospray ionization operated in the positive mode, and the collision gas used was ultra-pure argon at a flow rate of 0.15 mL min^−1.
# Quantification was achieved by external calibration using matrix-matched standards. Concentrations were calculated using a weighted least-squares linear regression (W=1/×). […]. The mixture was then agitated for 10 min and centrifuged at 13200 rpm for 5 min at 4° C. The resulting supernatants were transferred to a Ostro plate (Waters, Manchester, UK), designed to remove phospholipids. The resulting eluents were evaporated at 37° C. under a stream of nitrogen. Residues were dissolved in 75 μL of a mixture of methanol and water (50:50, v:v). A 10-uL aliquot of the resulting solution was injected onto the LC-MS/MS system for analysis. Frozen plasma samples were thawed at room temperature, vortexed thoroughly and subjected to the above described extraction procedure. Brain samples were thawed unassisted at room temperature and homogenized using a Branson 250 ultrasonic sonifier (Branson, Danbury, Conn., USA). When homogenized, 75 mg were weighted and extracted as described previously.
# Concentration values obtained from the LC-MS/MS analyses are described in Table 4.
# PDE9A isoform b = target: T2, PDE9A isoform b (Homo sapiens, UniProt O76083); experiment: PDE enzyme activity assay (HTRF cGMP), PDE9A; assay type: biochemical; details: recombinant enzyme; read-out: PDE9A inhibition (IC50)
# T2 construct: they are full-length with N-terminal GST tag; GST (N); purchased BPS Biosciences 60090; host or cells: baculovirus infected Sf9 cells
# T2 sequence (O76083 1-533 isoform O76083-2): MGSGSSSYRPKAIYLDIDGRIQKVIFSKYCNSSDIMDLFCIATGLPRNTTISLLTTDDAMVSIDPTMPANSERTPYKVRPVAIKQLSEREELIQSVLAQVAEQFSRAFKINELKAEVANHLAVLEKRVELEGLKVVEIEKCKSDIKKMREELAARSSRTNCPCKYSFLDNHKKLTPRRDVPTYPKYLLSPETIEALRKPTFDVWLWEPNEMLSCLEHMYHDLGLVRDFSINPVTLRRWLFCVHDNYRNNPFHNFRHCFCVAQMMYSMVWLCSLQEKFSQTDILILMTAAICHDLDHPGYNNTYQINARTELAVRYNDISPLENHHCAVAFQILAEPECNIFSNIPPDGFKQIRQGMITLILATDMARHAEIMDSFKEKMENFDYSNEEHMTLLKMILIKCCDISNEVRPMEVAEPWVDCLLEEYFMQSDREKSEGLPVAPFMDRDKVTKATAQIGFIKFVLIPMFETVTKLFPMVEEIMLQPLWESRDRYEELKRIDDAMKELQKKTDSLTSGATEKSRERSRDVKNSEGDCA
SMILES,EC50 [1],IC50 (HDAC6),EC50 [2],CMax (brain; nmol/Kg) ([3]; 40 mg/kg),Tmax ([3]; dosage 40 mg/Kg),Cmax ([3]; dosage 40 mg/Kg),IC50 (PDE9A isoform b),CMax (brain; nmol/Kg) ([3]; 20 mg/kg),Tmax ([3]; dosage 20 mg/Kg),Cmax ([3]; dosage 20 mg/Kg)
"CCCc1nn(C)c2c(=O)[nH]c(-c3cc(CC4CC(C(=O)NO)C4)ccc3OCC)nc12 (racemic) [Example 1-19, 3-[[4-ethoxy-3-(1-methyl-7-oxo-3-propyl-6H-pyrazolo[4,3-d]pyrimidin-5-yl)phenyl]methyl]cyclobutanecarbohydroxamic acid]",10 to 1000 nM,10 to 1000 nM,10 to 1000 nM,609 (178)^c nmol/Kg,15 min,15800 nM,,,,
"CCCc1nn(C)c2c(=O)[nH]c(-c3cc(S(=O)(=O)N4CCN(c5ncc(C(=O)NO)cn5)CC4)ccc3OCC)nc12 [Example 1-06, 2-(4-[3-(6,7-Dihydro-1-methyl-7-oxo-3-propyl-1H-pyrazolo[4,3-d]pyrimidin-5-yl)-4-ethoxyphenylsulfonyl]piperazin-1-yl)-N-hydroxypyrimidine-5-carboxamide]",10 to 1000 nM,10 to 1000 nM,,,,,> 10000 nM,5.8 (1.8)^c nmol/Kg,15 min,283 nM
"CCCc1nn(C)c2c(=O)[nH]c(-c3cc(Cc4ccc(C(=O)NO)cc4)ccc3OCC)nc12 [Example 1-15, 4-[[4-ethoxy-3-(1-methyl-7-oxo-3-propyl-6H-pyrazolo[4,3-d]pyrimidin-5-yl)phenyl]methyl]benzenecarbohydroxamic acid]",10 to 1000 nM,10 to 1000 nM,,,,,,29 (8)^c nmol/Kg,15 min,653 nM
CCCc1nn(C)c2c(=O)[nH]c(-c3cc(Cc4ccc(C(=O)NO)s4)ccc3OCC)nc12 [Example 1-16],10 to 1000 nM,10 to 1000 nM,10 to 1000 nM,,,,,102 (7)^c nmol/Kg,30 min,11800 nM
